From article PMC7849013, “Structural Investigations of the Inhibition of Escherichia coli AmpC β-Lactamase by Diazabicyclooctanes” (Antimicrobial Agents and Chemotherapy, 2021)
≈ marks a conversion by molar mass, not a printed value. Where “and” joins values, the source holds several entries; their conditions need not be identical. Equal values may be shown once.

How the values were obtained:
[1] = system: DH5α Escherichia coli (wt); assay: MIC by broth microdilution, wild-type strain; type: cell-based; details: compound alone, read-out: Minimum Inhibitory Concentration
Method: (§1) MICs were determined by broth microdilutions in triplicate and interpreted using published guidelines described by the CLSI. […] DBOs were also tested as the sole administered antimicrobial (0.25 to 256 μg ml^−1) against both strains (Table S5).

[2] = system: DH5α E. coli containing the pAD7-AmpCEC plasmid; assay: MIC by broth microdilution, AmpCEC-producing strain; type: cell-based, Escherichia coli; details: for MIC: Escherichia coli, read-out: Minimum Inhibitory Concentration, compound alone, DH5α pAD7 AmpCEC
Method: as §1

[3] = biological target: T1, AmpC SBL from Escherichia coli (AmpCEC) (Escherichia coli, UniProt P00811); assay: Steady-state competitive inhibition kinetics of AmpCEC with fluorescent substrate FC-5 (kobs, Kiapp, k2/K); type: biochemical
T1 construct: made in house
T1 sequence (P00811 20-377): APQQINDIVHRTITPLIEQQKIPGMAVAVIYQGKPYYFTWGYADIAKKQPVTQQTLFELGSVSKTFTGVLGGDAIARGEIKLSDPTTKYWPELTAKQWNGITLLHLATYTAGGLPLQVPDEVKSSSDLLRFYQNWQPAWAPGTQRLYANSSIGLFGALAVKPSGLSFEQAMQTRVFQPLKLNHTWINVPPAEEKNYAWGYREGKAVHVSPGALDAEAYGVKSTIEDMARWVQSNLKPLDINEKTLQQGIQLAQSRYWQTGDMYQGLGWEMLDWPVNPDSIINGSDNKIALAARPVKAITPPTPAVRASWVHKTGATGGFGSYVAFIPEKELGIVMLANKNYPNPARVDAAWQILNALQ
Method: (§2) Assays were performed and analyzed as described previously ([34]). In summary, assays in the presence of inhibitors were carried out under steady-state conditions monitoring hydrolysis of the fluorescent substrate FC-5 ([33]) in 100 mM phosphate buffer, pH 7.5, supplemented with 0.01% (vol/vol) Triton X-100. Fluorescence was measured using a PHERAstar (BMG Labtech) plate reader, recording emission spectra at an excitation wavelength of 380 nm and emission wavelength of 460 nm. […] The pseudo first-order rate constant, kobs, and the apparent inhibition constant, Kiapp, were obtained by assaying 100 nM AmpCEC with 5 μM FC-5 in the presence of various concentrations of the inhibitor. Reactions were initiated by addition of AmpCEC and immediately monitored continuously over 30 s. […] The second-order rate constant (k2/K) was obtained from linear regression of measured kobs values against inhibitor concentrations (see Fig. S3b in the supplemental material) and corrected by the Michaelis constant (Km) and concentration of the substrate. Kiapps ([50]) were determined by linear regression of the reciprocals of the initial rates against inhibitor concentration (Fig. S3a) and corrected using the experimentally determined substrate Km and substrate concentration. Inhibitor off rates (koff) were measured using the jump-dilution method ([51]); thus, AmpCEC (1 μM) was incubated with the respective inhibitor (10 μM) for 30 min at room temperature and diluted 100,000-fold in the assay buffer to a final enzyme concentration of 10 pM and then immediately assayed using 25 μM (final concentration) FC-5. Off rates were determined from exponential regression in relation to turnover of no enzyme and no inhibitor controls (Fig. S3c). Half-lives of the enzyme-inhibitor complexes were directly calculated from the measured koff values.
Figure S1: Progression curves used in kobs determinations. AmpCEC (100 nM) was assayed using FC-5 (5 μM)
Reactions were initiated by addition of
AmpCEC and immediately monitored, as described in Materials and Methods. Buffer: 50 mM phosphate buffer, pH
7.5 and 0.01% (v/v) Triton X-100. Curves were fitted to Equation 5.
(A) Determination of Kiapp values
for AmpCEC inhibition by DBOs. […]

[4] = biological target: T1, AmpC SBL from Escherichia coli (AmpCEC); assay: Jump-dilution off-rate of AmpCEC-DBO carbamoyl complexes (FC-5); type: biochemical; details: jump dilution 100,000-fold; 1 μM AmpCEC preincubated with 10 μM DBO 30 min at room temperature; 25 μM FC-5
Method: as §2, with “Inhibitor off rates (koff) were measured using the jump-dilution method ([51]); thus, AmpCEC (1 μM) was incubated with the respective inhibitor (10 μM) for 30 min at room temperature and diluted 100,000-fold in the assay buffer to a final enzyme concentration of 10 pM and then immediately assayed using 25 μM (final concentration) FC-5.” left out, “Half-lives of the enzyme-inhibitor complexes were directly calculated from the measured koff values.” left out

[5] = biological target: T1, AmpC SBL from Escherichia coli (AmpCEC); assay: AmpCEC inhibition pIC50 with varied preincubation time and pH (FC-5); type: biochemical
Method: as §2
pre-incubated with the inhibitors for the indicated times at room temperature and assayed using 5 μM FC-5 [1].
(1 picture or pasted object on this page, not shown here)
AmpCEC (500 pM) was preincubated
with the inhibitors for the indicated times at room temperature, then assayed using 5 μM FC-5 [1]. Buffer: 50 mM
regression (Figure S2), as described in the Materials and Methods.

[6] = biological target: T1, AmpC SBL from Escherichia coli (AmpCEC); assay: as above; type: biochemical; remark: listed apart in the source
[7] = system: E. coli ATCC 25922; set-up: method as in PMID 30861342; details: E. coli ATCC 25922, compound alone; cited from earlier work
[8] = system: PDC-1; set-up: method as in earlier work; details: ref [2]; cited from earlier work
[9] = system: PDC-3; set-up: method as in earlier work; details: ref [2]; cited from earlier work
[10] = biological target: ADC-7; set-up: method as in earlier work; details: ref [2], cited from earlier work; for Ki: read-out: Kiapp
[11] = [DBO] 5.00 µM, 100 nM AmpCEC, 5 μM FC-5
[12] = pIC50, 0 min preincubation, pH 7.5, 500 pM AmpCEC, 5 μM FC-5
[13] = pIC50, 10 min preincubation, pH 7.5
[14] = pIC50, 30 min preincubation, pH 7.5
[15] = pIC50, 60 min preincubation, pH 7.5
[16] = pIC50, 360 min preincubation, pH 7.5, 500 pM AmpCEC, 5 μM FC-5
[17] = pIC50, 0 min preincubation, pH 7.0
[18] = pIC50, 0 min preincubation, pH 8.0
[19] = pIC50, 10 min preincubation, pH 7.0
[20] = pIC50, 10 min preincubation, pH 8.0
[21] = pIC50, 30 min preincubation, pH 7.0
[22] = pIC50, 60 min preincubation, pH 7.0
[23] = pIC50, 60 min preincubation, pH 8.0
[24] = pIC50, 360 min preincubation, pH 7.0
[25] = pIC50, 360 min preincubation, pH 8.0

Structure (SMILES) | MIC [1] | MIC [2] | Ki [3] | kobs ([3]; [DBO] 0.04 µM) | kobs ([3]; [DBO] 0.16 µM) | kobs ([3]; [DBO] 0.31 µM) | kobs ([3]; [DBO] 0.63 µM) | kobs ([3]; [DBO] 1.25 µM) | kobs [3, 11] | IC50 [5, 12] | IC50 [5, 13] | IC50 [5, 14] | IC50 [5, 15] | IC50 [5, 16] | IC50 [6, 17] | IC50 [6, 18] | IC50 [6, 19] | IC50 [6, 20] | IC50 [6, 21] | MIC [7] | other results
CC(C)(O/N=C(\C(=O)N[C@@H]1C(=O)N2C(C(=O)[O-])=C(C[n+]3ccccc3)CS[C@H]12)c1csc(N)n1)C(=O)O [CAZ, ceftazidime] | 1 µg/mL (≈ 1.83 µM) | 256 µg/mL (≈ 468 µM) |  |  |  |  |  |  |  |  |  |  |  |  |  |  |  |  |  |  | 
NCCONC(=O)[C@@H]1CC[C@@H]2CN1C(=O)N2OS(=O)(=O)O [NAC, nacubactam] | 2 µg/mL (≈ 6.17 µM) | 4 µg/mL (≈ 12.3 µM) | 5 ± 0.1 µM | 0.142 ± 0.003 | 0.142 ± 0.003 | 0.153 ± 0.005 | 0.153 ± 0.002 | 0.185 ± 0.003 | 0.393 ± 0.008 | 178 nM | 66.1 nM | 34.7 nM | 13.8 nM | 2.95 nM | 200 nM | 141 nM | 91.2 nM | 58.9 nM | 31.6 nM | 2 µg/mL (≈ 6.17 µM) | kinact/KI ([3]; pH 7.5, read-out: k2/K (carbamoylation rate)): 52000 ± 2000 M⁻¹ s⁻¹; koff (decarbamoylation rate) [4]: 0.049 s^−1, ×10^−3 and 0.049 ± 0.01 s^−1, ×10^−3; Minimum Inhibitory Concentration ([2]; compound alone, DH5α pAD7 AmpCEC): 2 µg/mL; IC50 [6, 22]: 16.2 nM; IC50 [6, 23]: 15.1 nM; IC50 [6, 24]: 6.46 nM; IC50 [6, 25]: 5.13 nM
NC(=O)[C@@H]1CC[C@@H]2CN1C(=O)N2OS(=O)(=O)O [AVI, avibactam] | 16 µg/mL (≈ 60.3 µM) | 16 µg/mL (≈ 60.3 µM) |  | 0.135 ± 0.002 | 0.134 ± 0.001 | 0.135 ± 0.006 | 0.144 ± 0.002 | 0.168 ± 0.008 | 0.305 ± 0.004 |  |  |  |  |  |  |  |  |  |  | 16 µg/mL (≈ 60.3 µM) | k2/K [8]: 2900 (M-1s-1) x 10 3; t1/2 [8]: 6 min; k2/K [9]: 29 (M-1s-1) x 10 3; t1/2 [9]: 14 min; Ki [10]: 19 ± 2 µM; k2/K [10]: 3.9 ± 0.4 (M-1s-1) x 10 3; t1/2 [10]: 33 ± 5 min
O=C(NC1CCNCC1)[C@@H]1CC[C@@H]2CN1C(=O)N2OS(=O)(=O)O [REL, relebactam] | 128 µg/mL (≈ 367 µM) | 128 µg/mL (≈ 367 µM) | 7.1 ± 0.3 µM | 0.134 ± 0.007 | 0.138 ± 0.003 | 0.136 ± 0.002 | 0.143 ± 0.002 | 0.167 ± 0.005 | 0.314 ± 0.012 | 245 nM | 107 nM | 34.7 nM | 20.4 nM | 3.89 nM | 166 nM | 158 nM | 115 nM | 63.1 nM | 49 nM | > 64 µg/mL | IC50 [6, 22]: 17.4 nM; IC50 [6, 23]: 13.2 nM; IC50 [6, 24]: 4.17 nM; IC50 [6, 25]: 10.5 nM; k2/K [9]: 46 ± 5 (M-1s-1) x 10 3; t1/2 [9]: 13 ± 4 min; k2/K [10]: 7.8 ± 0.8 (M-1s-1) x 10 3; t1/2 [10]: 39 ± 4 min
O=C(NNC(=O)[C@@H]1CC[C@@H]2CN1C(=O)N2OS(=O)(=O)O)[C@@H]1CCCNC1 [ZID, zidebactam] | ≤ 0.25 µg/mL | ≤ 0.25 µg/mL | 0.69 ± 0.04 µM | 0.150 ± 0.002 | 0.183 ± 0.002 | 0.246 ± 0.002 | 0.357 ± 0.003 |  |  | 25.1 nM | 11 nM | 7.59 nM | 4.68 nM | 3.47 nM | 34.7 nM | 17 nM | 16.6 nM | 8.13 nM | 8.71 nM | 0.125 µg/mL (≈ 0.319 µM) | IC50 [6, 22]: 5.75 nM; IC50 [6, 23]: 3.89 nM; IC50 [6, 24]: 5.25 nM; IC50 [6, 25]: 4.37 nM; k2/K [9]: 480 ± 70 (M-1s-1) x 10 3; t1/2 [9]: 3 ± 0.4 min; Ki [10]: 2.3 ± 0.3 µM; k2/K [10]: 35 ± 4 (M-1s-1) x 10 3; t1/2 [10]: 11 ± 1 min
